In PubChem BioAssay (NCI):
Where “and” joins values, the source holds several entries; their conditions need not be identical. Equal values may be shown once.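 Values below derive from 48-hour exposures of cells grown in 96-well plates, with endpoints linearly interpolated between the two concentrations bracketing the appropriate inhibition level. GI50: concentration for 50% inhibition of growth. TGI is the concentration that stops growth completely.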

Tests used:
Assay in all cases: NCI-60 cell line screen, 48 h
[1] = tested on: KM12 colon
[2] = tested on: M14 melanoma
[3] = tested on: SK-MEL-5 melanoma
[4] = tested on: U251 CNS
[5] = tested on: SW-620 colon
[6] = tested on: SNB-75 CNS
[7] = tested on: COLO 205 colon
[8] = tested on: 786-0 renal
[9] = tested on: HT29 colon
[10] = tested on: HS 578T breast
[11] = tested on: HCT-116 colon
[12] = tested on: HOP-92 NSCLC
[13] = tested on: PC-3 prostate
[14] = tested on: MOLT-4 leukemia
[15] = tested on: BT-549 breast
[16] = tested on: K-562 leukemia
[17] = tested on: UACC-257 melanoma
[18] = tested on: MALME-3M melanoma
[19] = tested on: NCI-H460 lung
[20] = tested on: OVCAR-5 ovarian
[21] = tested on: CAKI-1 renal
[22] = tested on: MDA-MB-231 breast
[23] = tested on: SR leukemia
[24] = tested on: HCC-2998 colon
[25] = tested on: NCI-H226 lung
[26] = tested on: IGROV1 ovarian
[27] = tested on: MCF7 breast
[28] = tested on: EKVX NSCLC
[29] = tested on: RPMI-8226 leukemia
[30] = tested on: DU-145 prostate
[31] = tested on: TK-10 renal
[32] = tested on: HL-60(TB) leukemia
[33] = tested on: T-47D breast
[34] = tested on: SK-MEL-2 melanoma
[35] = tested on: RXF 393 renal
[36] = tested on: A549 NSCLC
[37] = tested on: SK-MEL-28 melanoma
[38] = tested on: SF-539 CNS
[39] = tested on: ACHN renal
[40] = tested on: SNB-19 CNS
[41] = tested on: MDA-MB-435
[42] = tested on: NCI-H23 lung
[43] = tested on: A498 renal
[44] = tested on: SN12C renal
[45] = tested on: HOP-62 NSCLC
[46] = tested on: UACC-62 melanoma
[47] = tested on: CCRF-CEM leukemia
[48] = tested on: SF-268 CNS
[49] = tested on: OVCAR-4 ovarian
[50] = tested on: LOX IMVI melanoma
[51] = tested on: OVCAR-8 ovarian
[52] = tested on: UO-31 renal
[53] = tested on: HCT-15 colon
[54] = tested on: SK-OV-3 ovarian
[55] = tested on: NCI/ADR-RES ovarian
[56] = tested on: NCI-H522 lung
[57] = tested on: SF-295 CNS
[58] = tested on: OVCAR-3 ovarian

O=C(NOCCO)c1ccc2cncn2c1Nc1ccc(I)cc1F
GI50 [1]: 0.0268 µM and 0.018 µM
TGI [1]: > 100 µM
GI50 [2]: 0.00286 µM and < 0.01 µM
GI50 [3]: 3.94 µM
TGI [3]: > 100 µM
GI50 [4]: 0.722 µM
TGI [4]: > 90.1 µM
GI50 [5]: 0.00386 µM and < 0.01 µM
TGI [5]: > 100 µM
GI50 [6]: > 8.85 µM and 14.3 µM
TGI [6]: > 100 µM
GI50 [7]: 0.00235 µM and < 0.01 µM
TGI [7]: 0.803 µM
GI50 [8]: > 10 µM and 27.1 µM
TGI [8]: > 100 µM
GI50 [9]: 0.00307 µM and < 0.01 µM
TGI [9]: > 100 µM
GI50 [10]: > 10 µM and 60.6 µM
TGI [10]: > 100 µM
GI50 [11]: 0.0101 µM and < 0.01 µM
TGI [11]: > 10 µM and 20.6 µM
GI50 [12]: 0.0147 µM and 0.0103 µM
TGI [12]: 0.325 µM and 0.0811 µM
GI50 [13]: > 10 µM and 45.4 µM
TGI [13]: > 100 µM
GI50 [14]: > 10 µM and 35.1 µM
TGI [14]: > 100 µM
GI50 [15]: > 10 µM and 11.1 µM
TGI [15]: > 91.7 µM
GI50 [16]: 0.359 µM and 0.219 µM
TGI [16]: > 100 µM
GI50 [17]: 0.00234 µM and < 0.01 µM
TGI [17]: 0.0127 µM and < 0.0141 µM
GI50 [18]: 0.00203 µM and < 0.01 µM
TGI [18]: 0.0186 µM and < 0.01 µM
GI50 [19]: > 10 µM and 21.9 µM
TGI [19]: > 100 µM
GI50 [20]: 0.00313 µM and < 0.01 µM
TGI [20]: > 100 µM
GI50 [21]: 0.111 µM and 0.292 µM
TGI [21]: > 100 µM
GI50 [22]: 0.0343 µM and 0.0283 µM
TGI [22]: > 100 µM
GI50 [23]: > 10 µM and 19.1 µM
TGI [23]: > 100 µM
GI50 [24]: 0.00299 µM and < 0.01 µM
GI50 [25]: 4.86 µM and 7.37 µM
TGI [25]: > 100 µM
GI50 [26]: 0.013 µM and 0.0532 µM
TGI [26]: > 100 µM
GI50 [27]: > 10 µM and 26.2 µM
TGI [27]: > 100 µM
GI50 [28]: 0.0629 µM
TGI [28]: > 10 µM
GI50 [29]: > 10 µM and 24.6 µM
TGI [29]: > 100 µM
GI50 [30]: > 10 µM and 19.9 µM
TGI [30]: > 100 µM
GI50 [31]: 0.00874 µM and < 0.0129 µM
TGI [31]: > 100 µM
GI50 [32]: 0.00191 µM and < 0.01 µM
TGI [32]: > 100 µM
GI50 [33]: > 10 µM and 51.1 µM
TGI [33]: > 100 µM
GI50 [34]: 0.00127 µM and < 0.01 µM
TGI [34]: 0.00636 µM and < 0.01 µM
GI50 [35]: 0.188 µM and 0.303 µM
TGI [35]: > 10 µM and 21.4 µM
GI50 [36]: 0.143 µM and 0.132 µM
TGI [36]: > 100 µM
GI50 [37]: 0.003 µM and < 0.01 µM
TGI [37]: 0.0717 µM and 0.198 µM
GI50 [38]: > 10 µM and 12.4 µM
TGI [38]: > 100 µM
GI50 [39]: 0.3 µM
TGI [39]: > 100 µM
GI50 [40]: > 10 µM and 1.99 µM
TGI [40]: > 100 µM
GI50 [41]: 0.00756 µM and < 0.01 µM
TGI [41]: > 100 µM
GI50 [42]: 0.0189 µM and 0.0195 µM
TGI [42]: > 10 µM and 45.2 µM
GI50 [43]: 0.00606 µM and < 0.01 µM
TGI [43]: 0.0542 µM and 0.043 µM
GI50 [44]: > 10 µM and 19.8 µM
TGI [44]: > 100 µM
GI50 [45]: 0.0159 µM and < 0.0182 µM
TGI [45]: > 71.4 µM
GI50 [46]: 0.00255 µM and < 0.01 µM
TGI [46]: 0.0343 µM and 0.0433 µM
GI50 [47]: > 10 µM and 28.1 µM
TGI [47]: > 100 µM
GI50 [48]: > 10 µM and 22 µM
TGI [48]: > 100 µM
GI50 [49]: > 10 µM and 4.29 µM
TGI [49]: > 100 µM
GI50 [50]: 0.0493 µM and 0.0635 µM
TGI [50]: > 10 µM and 47.1 µM
GI50 [51]: > 10 µM and 19.4 µM
TGI [51]: > 100 µM
GI50 [52]: 0.0596 µM and 0.0455 µM
TGI [52]: > 100 µM
GI50 [53]: > 2.24 µM and 1.72 µM
TGI [53]: > 100 µM
GI50 [54]: > 3.15 µM and 0.791 µM
TGI [54]: > 96.2 µM
GI50 [55]: > 10 µM and 29.4 µM
TGI [55]: > 100 µM
GI50 [56]: > 3.69 µM and 16.9 µM
TGI [56]: > 100 µM
GI50 [57]: > 56.5 µM
TGI [57]: > 100 µM
GI50 [58]: > 10 µM and 32.7 µM
TGI [58]: > 100 µM
